Experimental data taken from ChEMBL document CHEMBL5291721, “A preclinical secondary pharmacology resource illuminates target-adverse drug reaction associations of marketed drugs” (Nat Commun, 2023).

Tests used:
Acetylcholinesterase = Acetylcholinesterase (Homo sapiens, UniProt P22303); format: functional
[1] = biological target: T1, Alpha-2A adrenergic receptor (Homo sapiens, UniProt P08913)
T1 sequence (P08913 whole entry): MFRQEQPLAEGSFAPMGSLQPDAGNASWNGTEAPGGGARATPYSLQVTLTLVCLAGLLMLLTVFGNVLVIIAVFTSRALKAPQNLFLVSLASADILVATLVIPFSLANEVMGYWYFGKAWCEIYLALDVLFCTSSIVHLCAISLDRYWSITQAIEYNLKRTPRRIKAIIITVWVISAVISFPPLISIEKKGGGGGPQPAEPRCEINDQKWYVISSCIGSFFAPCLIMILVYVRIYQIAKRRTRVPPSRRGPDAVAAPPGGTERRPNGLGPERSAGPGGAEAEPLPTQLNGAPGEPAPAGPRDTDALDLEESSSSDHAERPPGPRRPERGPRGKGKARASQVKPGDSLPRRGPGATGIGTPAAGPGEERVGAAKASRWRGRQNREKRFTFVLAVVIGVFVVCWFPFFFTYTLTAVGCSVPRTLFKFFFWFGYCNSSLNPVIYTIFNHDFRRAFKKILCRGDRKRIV

[2] = biological target: T2, Muscarinic acetylcholine receptor M2 (Homo sapiens, UniProt P08172)
T2 sequence (P08172 whole entry): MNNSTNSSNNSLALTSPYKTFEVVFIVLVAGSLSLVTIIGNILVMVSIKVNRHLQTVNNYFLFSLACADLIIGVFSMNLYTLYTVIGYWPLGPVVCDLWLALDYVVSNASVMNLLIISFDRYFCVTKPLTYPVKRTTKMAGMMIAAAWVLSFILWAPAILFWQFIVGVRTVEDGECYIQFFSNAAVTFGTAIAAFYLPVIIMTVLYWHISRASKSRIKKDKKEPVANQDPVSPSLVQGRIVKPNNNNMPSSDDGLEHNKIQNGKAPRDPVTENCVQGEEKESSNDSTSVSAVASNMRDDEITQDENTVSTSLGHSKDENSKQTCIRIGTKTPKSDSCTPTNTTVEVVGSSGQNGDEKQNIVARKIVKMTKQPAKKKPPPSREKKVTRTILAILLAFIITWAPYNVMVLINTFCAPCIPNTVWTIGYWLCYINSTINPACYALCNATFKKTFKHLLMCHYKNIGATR

D(3) dopamine receptor = D(3) dopamine receptor (Homo sapiens, UniProt P35462)
Prothrombin = Prothrombin (Homo sapiens, UniProt P00734); format: functional
[3] = biological target: T3, 5-hydroxytryptamine receptor 1A (Homo sapiens, UniProt P08908)
T3 sequence (P08908 whole entry): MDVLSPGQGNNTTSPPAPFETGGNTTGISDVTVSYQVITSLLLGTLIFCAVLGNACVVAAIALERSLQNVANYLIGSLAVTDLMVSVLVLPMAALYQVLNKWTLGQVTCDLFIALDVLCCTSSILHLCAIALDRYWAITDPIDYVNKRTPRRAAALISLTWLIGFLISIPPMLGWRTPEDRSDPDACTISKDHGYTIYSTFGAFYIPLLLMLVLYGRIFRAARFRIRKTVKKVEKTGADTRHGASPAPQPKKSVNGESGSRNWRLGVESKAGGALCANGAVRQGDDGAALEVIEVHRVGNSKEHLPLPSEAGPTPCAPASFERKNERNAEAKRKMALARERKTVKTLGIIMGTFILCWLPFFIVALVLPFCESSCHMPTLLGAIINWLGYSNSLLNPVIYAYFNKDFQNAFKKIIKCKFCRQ

[4] = biological target: Voltage-gated inwardly rectifying potassium channel KCNH2 (Homo sapiens, UniProt Q12809); format: functional; details: read-out: AC50
[5] = biological target: Vascular endothelial growth factor receptor 2 (Homo sapiens, UniProt P35968); format: functional
[6] = biological target: T4, Amine oxidase [flavin-containing] A (Homo sapiens, UniProt P21397); format: functional
T4 sequence (P21397 whole entry): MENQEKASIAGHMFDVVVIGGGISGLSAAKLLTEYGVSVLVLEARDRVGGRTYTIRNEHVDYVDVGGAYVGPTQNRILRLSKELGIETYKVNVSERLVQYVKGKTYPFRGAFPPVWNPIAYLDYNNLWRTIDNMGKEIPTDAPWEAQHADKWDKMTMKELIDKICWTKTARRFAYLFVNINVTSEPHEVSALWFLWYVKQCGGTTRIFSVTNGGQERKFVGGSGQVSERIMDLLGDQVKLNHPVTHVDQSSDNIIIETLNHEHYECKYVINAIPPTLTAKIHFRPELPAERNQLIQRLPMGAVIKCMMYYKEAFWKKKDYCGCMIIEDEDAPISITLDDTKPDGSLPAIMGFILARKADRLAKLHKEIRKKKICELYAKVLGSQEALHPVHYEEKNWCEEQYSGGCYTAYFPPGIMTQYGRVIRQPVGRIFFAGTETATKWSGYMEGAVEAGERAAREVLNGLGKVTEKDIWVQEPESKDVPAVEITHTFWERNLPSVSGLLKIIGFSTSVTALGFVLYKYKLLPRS

[7] = biological target: cGMP-inhibited 3',5'-cyclic phosphodiesterase 3A (Homo sapiens, UniProt Q14432); format: functional
[8] = biological target: 3',5'-cyclic-AMP phosphodiesterase 4A (Homo sapiens, UniProt P27815); format: functional
[9] = biological target: T5, Prostaglandin G/H synthase 1 (Homo sapiens, UniProt P23219); format: functional
[10] = biological target: T5, Prostaglandin G/H synthase 1; format: functional; remark: listed apart in the source
[11] = biological target: Sodium-dependent noradrenaline transporter (Homo sapiens, UniProt P23975)
Thromboxane A2 receptor = biological target: T6, Thromboxane A2 receptor (Homo sapiens, UniProt P21731); format: functional, cell-based
T6 sequence (P21731 whole entry): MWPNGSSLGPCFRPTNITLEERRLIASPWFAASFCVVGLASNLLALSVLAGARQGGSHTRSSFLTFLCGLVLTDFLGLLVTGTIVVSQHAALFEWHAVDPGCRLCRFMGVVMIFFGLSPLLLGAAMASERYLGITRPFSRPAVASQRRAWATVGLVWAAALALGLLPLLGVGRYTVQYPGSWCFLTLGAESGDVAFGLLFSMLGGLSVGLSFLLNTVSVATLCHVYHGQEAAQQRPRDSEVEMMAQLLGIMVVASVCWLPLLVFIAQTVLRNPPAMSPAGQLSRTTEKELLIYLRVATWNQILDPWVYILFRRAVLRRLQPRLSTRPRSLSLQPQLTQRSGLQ

[12] = biological target: Sodium-dependent serotonin transporter (Homo sapiens, UniProt P31645)
Note: assay procedure not described here.

Sequence of Sodium-dependent noradrenaline transporter (P23975 whole entry): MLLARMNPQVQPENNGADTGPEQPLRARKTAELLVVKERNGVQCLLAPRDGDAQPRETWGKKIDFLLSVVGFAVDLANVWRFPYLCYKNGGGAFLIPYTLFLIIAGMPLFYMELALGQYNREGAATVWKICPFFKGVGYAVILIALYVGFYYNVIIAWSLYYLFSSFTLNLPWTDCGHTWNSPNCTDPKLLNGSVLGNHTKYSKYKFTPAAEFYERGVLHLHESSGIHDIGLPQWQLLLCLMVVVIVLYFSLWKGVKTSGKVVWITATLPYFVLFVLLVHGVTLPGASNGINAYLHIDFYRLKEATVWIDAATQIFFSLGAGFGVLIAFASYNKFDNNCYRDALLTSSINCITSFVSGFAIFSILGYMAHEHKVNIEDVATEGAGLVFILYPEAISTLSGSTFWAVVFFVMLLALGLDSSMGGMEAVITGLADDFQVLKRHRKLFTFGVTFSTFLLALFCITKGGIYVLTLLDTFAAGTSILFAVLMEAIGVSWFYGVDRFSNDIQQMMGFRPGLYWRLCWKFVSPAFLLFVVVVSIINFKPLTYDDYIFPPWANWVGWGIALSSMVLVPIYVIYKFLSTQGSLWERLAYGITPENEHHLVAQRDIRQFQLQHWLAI
Sequence of D(3) dopamine receptor (P35462 whole entry): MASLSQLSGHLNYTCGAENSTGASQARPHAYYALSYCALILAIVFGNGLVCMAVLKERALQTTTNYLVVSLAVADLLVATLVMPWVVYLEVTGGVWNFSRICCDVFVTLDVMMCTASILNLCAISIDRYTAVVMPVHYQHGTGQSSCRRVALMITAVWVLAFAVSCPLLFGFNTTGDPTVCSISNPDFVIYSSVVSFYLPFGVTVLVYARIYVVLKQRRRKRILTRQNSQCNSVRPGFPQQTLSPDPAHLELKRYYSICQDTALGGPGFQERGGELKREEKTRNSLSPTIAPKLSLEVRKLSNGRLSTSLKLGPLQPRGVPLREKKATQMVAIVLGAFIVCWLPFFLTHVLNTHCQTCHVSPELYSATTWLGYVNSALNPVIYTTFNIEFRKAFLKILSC
T5 sequence (P23219 whole entry): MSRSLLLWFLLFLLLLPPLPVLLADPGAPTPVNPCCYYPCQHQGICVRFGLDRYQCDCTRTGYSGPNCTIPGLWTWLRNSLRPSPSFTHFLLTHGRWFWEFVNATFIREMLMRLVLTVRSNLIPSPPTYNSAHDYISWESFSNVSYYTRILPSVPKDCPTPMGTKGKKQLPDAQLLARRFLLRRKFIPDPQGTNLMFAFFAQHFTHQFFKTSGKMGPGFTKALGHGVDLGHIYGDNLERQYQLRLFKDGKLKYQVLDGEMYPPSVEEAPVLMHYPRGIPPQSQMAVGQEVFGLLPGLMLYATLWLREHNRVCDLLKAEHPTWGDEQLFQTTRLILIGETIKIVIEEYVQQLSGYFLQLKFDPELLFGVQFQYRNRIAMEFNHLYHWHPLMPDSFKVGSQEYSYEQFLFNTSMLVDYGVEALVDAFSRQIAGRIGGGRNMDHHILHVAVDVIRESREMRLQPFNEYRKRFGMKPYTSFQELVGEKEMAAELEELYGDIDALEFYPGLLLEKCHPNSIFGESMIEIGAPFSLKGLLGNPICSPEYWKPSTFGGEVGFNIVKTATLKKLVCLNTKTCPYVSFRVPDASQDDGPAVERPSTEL
Sequence of Acetylcholinesterase (P22303 whole entry): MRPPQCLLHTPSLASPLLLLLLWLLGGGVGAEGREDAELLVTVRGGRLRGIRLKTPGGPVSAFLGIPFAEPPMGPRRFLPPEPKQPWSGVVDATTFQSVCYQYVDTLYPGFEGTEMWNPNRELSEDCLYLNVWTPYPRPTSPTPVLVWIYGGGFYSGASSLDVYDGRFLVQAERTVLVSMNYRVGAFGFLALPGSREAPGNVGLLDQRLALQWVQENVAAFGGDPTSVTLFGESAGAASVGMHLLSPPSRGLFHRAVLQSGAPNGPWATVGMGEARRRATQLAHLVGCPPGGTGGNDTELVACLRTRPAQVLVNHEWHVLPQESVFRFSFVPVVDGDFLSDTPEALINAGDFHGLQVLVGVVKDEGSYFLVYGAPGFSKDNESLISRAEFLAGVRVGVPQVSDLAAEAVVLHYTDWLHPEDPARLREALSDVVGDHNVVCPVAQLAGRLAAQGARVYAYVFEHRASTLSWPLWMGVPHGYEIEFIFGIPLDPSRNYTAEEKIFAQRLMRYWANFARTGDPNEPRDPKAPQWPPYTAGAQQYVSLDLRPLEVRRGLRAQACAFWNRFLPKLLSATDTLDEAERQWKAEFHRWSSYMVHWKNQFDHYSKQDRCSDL
Sequence of 3',5'-cyclic-AMP phosphodiesterase 4A (P27815 whole entry): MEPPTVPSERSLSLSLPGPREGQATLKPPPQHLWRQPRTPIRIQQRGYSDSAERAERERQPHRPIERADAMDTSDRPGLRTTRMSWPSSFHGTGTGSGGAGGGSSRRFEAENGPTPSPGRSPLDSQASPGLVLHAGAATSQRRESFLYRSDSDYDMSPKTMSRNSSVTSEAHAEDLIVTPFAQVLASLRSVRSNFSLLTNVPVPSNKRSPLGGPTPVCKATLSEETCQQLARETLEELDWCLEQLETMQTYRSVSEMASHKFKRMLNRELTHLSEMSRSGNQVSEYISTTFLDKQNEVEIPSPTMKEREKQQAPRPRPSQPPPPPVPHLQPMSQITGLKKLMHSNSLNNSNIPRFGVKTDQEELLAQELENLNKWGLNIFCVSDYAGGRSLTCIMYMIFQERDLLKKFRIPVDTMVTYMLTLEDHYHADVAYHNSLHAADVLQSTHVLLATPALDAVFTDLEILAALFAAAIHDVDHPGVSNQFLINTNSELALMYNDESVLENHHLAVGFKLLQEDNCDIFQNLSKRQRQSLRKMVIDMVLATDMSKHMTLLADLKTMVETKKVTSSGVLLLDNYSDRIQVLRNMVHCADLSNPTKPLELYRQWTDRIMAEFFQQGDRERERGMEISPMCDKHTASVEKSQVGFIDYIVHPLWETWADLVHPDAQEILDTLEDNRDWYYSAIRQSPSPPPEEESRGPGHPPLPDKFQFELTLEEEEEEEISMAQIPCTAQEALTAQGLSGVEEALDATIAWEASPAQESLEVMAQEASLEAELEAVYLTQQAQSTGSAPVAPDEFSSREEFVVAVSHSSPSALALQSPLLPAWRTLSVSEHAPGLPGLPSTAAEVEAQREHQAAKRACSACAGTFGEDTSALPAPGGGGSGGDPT
Sequence of Vascular endothelial growth factor receptor 2 (P35968 whole entry): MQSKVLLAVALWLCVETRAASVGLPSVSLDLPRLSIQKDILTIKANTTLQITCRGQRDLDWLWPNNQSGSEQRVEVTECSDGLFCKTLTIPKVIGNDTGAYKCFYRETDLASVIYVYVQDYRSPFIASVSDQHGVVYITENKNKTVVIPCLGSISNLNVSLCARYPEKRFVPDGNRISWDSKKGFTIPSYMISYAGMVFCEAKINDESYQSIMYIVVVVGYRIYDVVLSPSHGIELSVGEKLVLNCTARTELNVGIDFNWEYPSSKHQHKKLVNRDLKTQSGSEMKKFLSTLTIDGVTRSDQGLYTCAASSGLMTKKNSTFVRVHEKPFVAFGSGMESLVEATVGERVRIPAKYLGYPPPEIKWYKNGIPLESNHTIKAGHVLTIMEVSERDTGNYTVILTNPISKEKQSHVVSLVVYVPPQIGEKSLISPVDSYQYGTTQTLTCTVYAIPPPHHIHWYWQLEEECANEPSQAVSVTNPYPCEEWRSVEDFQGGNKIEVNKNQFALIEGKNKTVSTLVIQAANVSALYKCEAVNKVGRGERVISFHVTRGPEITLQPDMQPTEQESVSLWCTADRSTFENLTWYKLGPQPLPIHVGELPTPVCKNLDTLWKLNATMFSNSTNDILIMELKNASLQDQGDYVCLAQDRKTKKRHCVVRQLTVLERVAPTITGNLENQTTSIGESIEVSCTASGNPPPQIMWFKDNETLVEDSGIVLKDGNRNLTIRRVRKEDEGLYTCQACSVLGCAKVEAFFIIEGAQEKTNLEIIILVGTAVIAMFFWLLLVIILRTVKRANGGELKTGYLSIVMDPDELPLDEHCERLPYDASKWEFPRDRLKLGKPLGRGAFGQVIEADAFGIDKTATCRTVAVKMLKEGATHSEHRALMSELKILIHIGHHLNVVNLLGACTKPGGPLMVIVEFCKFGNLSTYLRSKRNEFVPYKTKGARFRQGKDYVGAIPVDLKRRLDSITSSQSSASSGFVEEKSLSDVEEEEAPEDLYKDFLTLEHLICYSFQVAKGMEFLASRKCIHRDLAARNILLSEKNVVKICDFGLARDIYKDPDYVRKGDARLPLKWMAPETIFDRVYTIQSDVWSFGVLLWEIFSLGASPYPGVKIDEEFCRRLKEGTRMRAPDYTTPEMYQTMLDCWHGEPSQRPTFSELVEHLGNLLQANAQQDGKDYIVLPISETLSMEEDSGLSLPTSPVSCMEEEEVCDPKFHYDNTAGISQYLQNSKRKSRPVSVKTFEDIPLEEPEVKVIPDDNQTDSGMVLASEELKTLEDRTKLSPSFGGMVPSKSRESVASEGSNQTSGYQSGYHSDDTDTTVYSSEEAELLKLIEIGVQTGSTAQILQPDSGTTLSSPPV

| Compound | AC50 (Acetylcholinesterase) | AC50 [1] | AC50 [2] | AC50 (D(3) dopamine receptor) | AC50 (Prothrombin) | AC50 [3] | AC50 [4] | AC50 [5] | AC50 [6] | AC50 [7] | AC50 [8] | AC50 [9] | AC50 [10] | AC50 [11] | AC50 (Thromboxane A2 receptor) | AC50 [12] |
| --- | --- | --- | --- | --- | --- | --- | --- | --- | --- | --- | --- | --- | --- | --- | --- | --- |
| C[C@@H]1CN(c2c(F)c(N)c3c(=O)c(C(=O)O)cn(C4CC4)c3c2F)C[C@H](C)N1 [SPARFLOXACIN] | > 30 µM | > 30 µM | > 30 µM | > 30 µM | > 30 µM | > 30 µM | 6.8 µM | > 30 µM | > 30 µM | > 30 µM | > 30 µM | > 30 µM | > 30 µM | > 30 µM | > 30 µM |  |
| N[C@@H](Cc1ccc(N(CCCl)CCCl)cc1)C(=O)O | 20 µM | 11.2 µM | 13.6 µM | 24.8 µM | > 30 µM | > 30 µM | 4.8 µM | > 30 µM | > 30 µM | > 30 µM | > 30 µM | > 30 µM | 6.82 µM | > 30 µM | > 30 µM |  |
| COC(=O)Nc1nc2cc(C(=O)c3ccc(F)cc3)ccc2[nH]1 [FLUBENDAZOLE] | > 30 µM | > 30 µM | > 30 µM | > 30 µM | > 30 µM | > 30 µM | > 30 µM | 0.386 µM | > 30 µM | > 30 µM | > 30 µM | 2.17 µM | > 30 µM | > 10 µM | > 30 µM |  |
| C[C@H]1C[C@H]2[C@@H]3CCC4=CC(=O)C=C[C@]4(C)[C@@]3(F)[C@@H](O)C[C@]2(C)[C@@]1(O)C(=O)CO [BETAMETHASONE] | > 30 µM | > 30 µM | > 30 µM | > 30 µM | > 30 µM | > 30 µM | > 30 µM | > 30 µM | > 30 µM | > 30 µM | > 30 µM | > 30 µM | > 30 µM | > 30 µM | > 30 µM |  |
| Cc1ccc(O)c([C@H](CCN(C(C)C)C(C)C)c2ccccc2)c1 [TOLTERODINE] | > 30 µM | > 30 µM |  | > 30 µM |  | > 30 µM |  |  | > 30 µM |  |  |  |  | > 30 µM |  | 20.3 µM |
| Oc1ccc(OCc2ccccc2)cc1 [MONOBENZONE] | > 30 µM | > 30 µM | > 30 µM | > 30 µM | > 30 µM | > 30 µM | > 30 µM | > 30 µM | > 30 µM | > 30 µM | > 30 µM | 11 µM | 7.88 µM | 6.96 µM | > 30 µM |  |
